Measurements from US8598128B2, “Fructosylated puerarin, and preparation method and use thereof” (priority 2010, dated 2013).

Experiment: Metabokinetic experiment in blood after caudal vein injection
Conditions: 50 mg/kg caudal vein, n = 5
Experimental: Embodiment 5: Metabokinetic Experiment of monofructosyl-β(2,6)-Puerarin in Blood
In HPLC analysis, DIONEX was used, with chromatographic column as Discovery HS C18 ([…], 5 μm), feeding specimen volume 20 μL, column temperature 30° C., the detector was UVD170U, with detection wavelength of 254 nm, flowing phase: A, water, B, chromatographic class methanol, A:B=80:20, at flow rate of 1 mL/min.
Sprague-Dawley mice (SD mice), with weight of 180-220 g, male and female in half, provided by Medical Experiment Center of Nantong University, with production permit No.: SCXK (Su) 20080010.
SD mice were randomly divided into 2 groups of 5 each, fasting for 12 hours before experiment. Puerarin and monofructosyl-β(2,6)-puerarin were respectively dissolved in 20% 1,2-PG normal saline, and injected into mouse caudal vein at a dosage of 50 mg/kg. After injection, at t=0 min, 4 min, 7 min, 17 min, 40 min, 60 min, 120 min and 180 min, 0.5 mL of blood was taken from orbit and put into centrifugal tubes treated with liquaemin, then it was immediately separated by centrifuging at 3000 rpm for 15 min, to separate out plasma for analysis.
Plasma of 100 μL was precisely taken and put into test tube, and 400 μL of methanol sedimented protein was added, they were mixed on vortex mixer for 5 min, then centrifuged at 10000 rpm for 10 min, and the supernatant was used for HPLC analysis.
The plasma concentration of the puerarin and monofructosyl-β(2,6)-puerarin specimens prepared as per 3.2 was obtained by calculation with external reference method. The data obtained were analyzed using pharmacokinetics statistic software.

O=c1c(-c2ccc(O)cc2)coc2c([C@@H]3O[C@H](CO[C@]4(CO)O[C@H](CO)[C@@H](O)[C@@H]4O)[C@@H](O)[C@H](O)[C@H]3O)c(O)ccc12 [monofructosyl-β(2,6)-puerarin]
AUC (0-t): 5523.446 ± 688.104 mg/Lxmin
CL (whole body clearance): 9 ± 1 mL/min/kg
MRT (0-t): 25.707 ± 2.324 min
MRT (0-∞): 27.453 ± 2.976 min
Y: 0.256 ± 0.032 L/kg
t½ (half life of clearance): 19.741 ± 2.34 min
